These results are taken from ChEMBL document CHEMBL1201862, “PubChem BioAssay data set” (2004).

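Results reflect a 48-hour exposure of cells in 96-well plates to compound at five concentrations. Here, GI50 denotes the concentration required for 50% inhibition of growth.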 The source made the active and inactive calls. Cut-off read from the data, not from the text of the source: active = GI50 up to about 1.1 µM and inactive = higher.

One may read the GI50 as the concentration giving 50% growth inhibition.

Among the test systems are Malme-3M; SNB-75; SF-539; SK-OV-3; CAKI-1; CCRF-CEM; NCI-H522; IGROV-1; SK-MEL-28; 786-0; OVCAR-5; ACHN; LXFL 529; HOP-62; K562; NCI-H23; M14.
Assay in all cases: DTP human tumour cell line panel, 48 h

Consider `NC(=S)N/N=C/c1nccc2ccccc12`, for which the GI50 in the test with Malme-3M was 0.0337 µM (active); in the test with SNB-75, 0.578 µM (active); in the test on SF-539, 0.223 µM (active); with SK-OV-3, 0.594 µM (active); in the test on CAKI-1 it was 0.738 µM (active); with CCRF-CEM it was 0.453 µM (active). The GI50 with NCI-H522 was 0.719 µM (active); in the test with IGROV-1, 0.762 µM (active); in the test on SK-MEL-28 it was 2.37 µM (inactive); with 786-0, 0.2 µM (active); with OVCAR-5, 0.685 µM (active); in the test with ACHN it was 0.0254 µM (active). The GI50 in the test on LXFL 529 is 1.96 µM (inactive); in the test with HOP-62, 0.619 µM (active); in the test with K562, 2.73 µM (inactive); with NCI-H23, 0.459 µM (active); in the test with M14, 0.482 µM (active).
Regarding `Cc1ccc(Cn2c(C)nc3c2C(=O)c2ccccc2C3=O)cc1`, the GI50 is 10.9 µM (inactive) in the test with Malme-3M; 13.9 µM (inactive) in the test on SNB-75; 1.32 µM (inactive) in the test with SF-539; 13.8 µM (inactive) with SK-OV-3; 1.98 µM (inactive) in the test with CCRF-CEM; 3.14 µM (inactive) in the test with NCI-H522. The GI50 in the test on IGROV-1 was 5.45 µM (inactive); with SK-MEL-28, 23.5 µM (inactive); in the test with 786-0 it was 2.18 µM (inactive); in the test with ACHN it was 6.22 µM (inactive); in the test with LXFL 529, 1.72 µM (inactive); in the test on HOP-62 it was 14 µM (inactive). For the same compound, the GI50 in the test with K562 was 0.834 µM (active); in the test with NCI-H23 it was 5.21 µM (inactive); in the test on M14 it was 27.7 µM (inactive).
In the case of `CC1(C)CC(/C=C2/OC(=O)c3ccccc32)=C(C#N)C(=O)O1`, the GI50 in the test on Malme-3M, with SNB-75, in the test with SF-539, with SK-OV-3, in the test on CAKI-1 and in the test with CCRF-CEM was > 100 µM (inactive) throughout. Further, the GI50 in the test with NCI-H522, in the test with IGROV-1, with SK-MEL-28, in the test with 786-0, with OVCAR-5 and with ACHN was > 100 µM (inactive) in each case. For the same compound, the GI50 with LXFL 529, in the test on HOP-62, with K562, in the test with NCI-H23 and in the test with M14 was > 100 µM (inactive) in each case.
Take `Cc1ccc(CC(C)N)cc1` (centres undefined): the GI50 in the test on Malme-3M, in the test with SNB-75, with SF-539, with SK-OV-3, with CAKI-1 and in the test on CCRF-CEM was > 100 µM (inactive) each time. Besides, the GI50 in the test on NCI-H522, in the test with IGROV-1, in the test on SK-MEL-28, in the test with 786-0, in the test on OVCAR-5 and in the test with ACHN was > 100 µM (inactive) throughout. For the same compound, the GI50 with LXFL 529, in the test with HOP-62, in the test on K562, with NCI-H23 and with M14 was > 100 µM (inactive) each time.
Regarding `CC1=Nc2ccccc2SC(c2c(Cl)cccc2Cl)C1` (centres undefined), the GI50 with Malme-3M was 1.61 µM (inactive); in the test with SNB-75, 1.91 µM (inactive); in the test on SF-539, 0.993 µM (active); in the test with SK-OV-3 it was 2.45 µM (inactive); with CAKI-1 it was 2.1 µM (inactive); in the test with CCRF-CEM, 0.304 µM (active). In addition, the GI50 in the test on NCI-H522 is 1.22 µM (inactive); with IGROV-1, 1.77 µM (inactive); in the test with SK-MEL-28, 1.36 µM (inactive); with 786-0, 0.454 µM (active); with OVCAR-5, 2.39 µM (inactive); with ACHN it was 1.71 µM (inactive). Also, the GI50 in the test on LXFL 529 was 0.5 µM (active); in the test on HOP-62, 2.15 µM (inactive); in the test on K562, 0.327 µM (active); in the test on NCI-H23, 1.32 µM (inactive); with M14, 1.52 µM (inactive).
In the case of `CN(Cc1ccccc1)C1(N(C)Cc2ccccc2)CC1`, the GI50 in the test on Malme-3M, with SNB-75, in the test on SF-539, with SK-OV-3, in the test with CAKI-1 and in the test with CCRF-CEM was > 100 µM (inactive) throughout. Also, the GI50 in the test on NCI-H522, in the test with IGROV-1, in the test on SK-MEL-28, in the test with 786-0, with OVCAR-5 and with ACHN was > 100 µM (inactive) each time. Further, the GI50 with LXFL 529, with HOP-62, with K562, with NCI-H23 and with M14 was > 100 µM (inactive) in each case.
For `CC/C(CC(=O)CCC(=O)Nc1ccccc1[N+](=O)[O-])=N/NC(=O)C[n+]1ccccc1`, the GI50 in the test with Malme-3M, in the test on SNB-75, in the test with SF-539, with SK-OV-3, in the test on CAKI-1 and with CCRF-CEM was > 100 µM (inactive) each time. Further, the GI50 in the test with NCI-H522, with IGROV-1, in the test on SK-MEL-28, with 786-0, with OVCAR-5 and in the test on ACHN was > 100 µM (inactive) each time. Further, the GI50 in the test with LXFL 529, in the test with HOP-62, with K562, in the test with NCI-H23 and in the test with M14 was > 100 µM (inactive) each time.
Consider `CC1=CP(=O)(OC(C)C)C=C(C)C1=C(Cl)Cl` (centres undefined), for which the GI50 was > 100 µM (inactive) with Malme-3M; > 100 µM (inactive) with SNB-75; 84.1 µM (inactive) with SF-539; 17.4 µM (inactive) with SK-OV-3; 54 µM (inactive) with CCRF-CEM; 2.52 µM (inactive) in the test on NCI-H522. In addition, the GI50 in the test on IGROV-1 was > 100 µM (inactive); with SK-MEL-28, 63.5 µM (inactive); in the test on 786-0, > 100 µM (inactive); in the test on OVCAR-5 it was > 100 µM (inactive); in the test on ACHN, 47.1 µM (inactive); in the test on LXFL 529, 30.7 µM (inactive). Further, the GI50 in the test on HOP-62 is > 100 µM (inactive); with K562, 42 µM (inactive); with NCI-H23, 52.7 µM (inactive); in the test on M14, 59.6 µM (inactive).
As for `[O-][Cl+3]([O-])([O-])[O-].c1ccc(-c2[o+]c(-c3ccccc3)c(-c3ccccc3)c(-c3ccccc3)c2-c2ccccc2)cc1`, the GI50 in the test with Malme-3M, with SNB-75, with SF-539, with SK-OV-3, in the test on CAKI-1 and in the test on NCI-H522 was > 100 µM (inactive) in each case. Moreover, the GI50 with IGROV-1, in the test on SK-MEL-28, in the test on 786-0, with OVCAR-5, with ACHN and with LXFL 529 was > 100 µM (inactive) in each case. Besides, the GI50 in the test on HOP-62, with NCI-H23 and in the test with M14 was > 100 µM (inactive) in each case.
Turning to `COc1cc(Nc2nc3ccccc3nc2-c2cccs2)cc(OC)c1OC`, the GI50 in the test with Malme-3M is 67.9 µM (inactive); with SNB-75, 40.6 µM (inactive); in the test with SF-539 it was 40.6 µM (inactive); in the test with SK-OV-3, 40.2 µM (inactive); in the test on CCRF-CEM, 47.1 µM (inactive); in the test on SK-MEL-28 it was 52.1 µM (inactive). For the same compound, the GI50 in the test on 786-0 was 22.4 µM (inactive); with OVCAR-5, > 100 µM (inactive); with ACHN, 16.4 µM (inactive); in the test with LXFL 529 it was 17.3 µM (inactive); in the test on HOP-62, 39.4 µM (inactive); in the test on NCI-H23, 50.6 µM (inactive).
In the case of `O=C(O)C1=C(Cl)c2ccccc2S1(=O)=O`, the GI50 with Malme-3M is > 100 µM (inactive); in the test on SNB-75, > 100 µM (inactive); with SK-OV-3 it was > 100 µM (inactive); in the test with CAKI-1, > 100 µM (inactive); in the test with CCRF-CEM, > 100 µM (inactive); with NCI-H522 it was 19.8 µM (inactive). The GI50 in the test on IGROV-1, in the test with SK-MEL-28, in the test with 786-0, in the test with OVCAR-5, in the test on LXFL 529 and in the test with HOP-62 was > 100 µM (inactive) in each case. The GI50 in the test on K562, in the test on NCI-H23 and in the test on M14 was > 100 µM (inactive) each time.
With `O=C1C(C2=[N+]([O-])c3ccccc3C2=O)=[N+]([O-])c2ccccc21`, the GI50 in the test with SNB-75 was 35.1 µM (inactive); in the test on SF-539 it was 20.5 µM (inactive); with SK-OV-3 it was 53.2 µM (inactive); in the test on CCRF-CEM, 19.3 µM (inactive); in the test with IGROV-1, 32.1 µM (inactive); in the test on SK-MEL-28 it was 42.9 µM (inactive). The GI50 in the test on 786-0 is 20.6 µM (inactive); in the test on OVCAR-5 it was 94.4 µM (inactive); in the test with ACHN it was 24.8 µM (inactive); in the test on LXFL 529, 17 µM (inactive); in the test on K562, 19.7 µM (inactive); with NCI-H23, 23.9 µM (inactive). The GI50 in the test with M14 was 16.6 µM (inactive).
For the compound `O=C(O)CCCc1cc2c(s1)-c1cccc3cccc-2c13`, the GI50 was 28.9 µM (inactive) with Malme-3M; 50.4 µM (inactive) in the test on SNB-75; 45.3 µM (inactive) in the test with SF-539; 19.8 µM (inactive) with SK-OV-3; 32.6 µM (inactive) in the test on CAKI-1; 21 µM (inactive) in the test on NCI-H522. Moreover, the GI50 in the test with IGROV-1 is 47.3 µM (inactive); in the test with SK-MEL-28, 34.2 µM (inactive); in the test on 786-0, > 100 µM (inactive); with OVCAR-5, > 100 µM (inactive); with ACHN, 22.4 µM (inactive); in the test with LXFL 529, 35 µM (inactive). Further, the GI50 in the test with HOP-62 is 33.3 µM (inactive); in the test with K562, 31.9 µM (inactive); in the test with NCI-H23, 21.2 µM (inactive); in the test on M14, 50.1 µM (inactive).
